Measured values: patent US12077503B2, “Substituted cyclic amides and their use as herbicides” (FMC CORPORATION, priority 2015, dated 2024)

Legend:
Type in all cases: in vivo
[1] = test system: ragweed (common ragweed, Ambrosia elatior); assay: Test A preemergence; conditions: Ambrosia artemisiifolia, pre-emergence, 240 h; for pest or weed control at 125 g/ha: 125 g ai/ha, preemergence, 0 to 100 scale where 0 is no effect and 100 is complete control, read-out: Ragweed plant response rating; for pest or weed control at 500 g/ha: 500 g ai/ha, Preemergence, visual injury vs untreated controls after approximately 10 d, read-out: Ragweed plant response rating (0 to 100 scale where 0 is no effect and 100 is complete control)
How it was run: (§1)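 Greenhouse, ~10 d after spray; visual injury vs untreated controls, 0 = no effect, 100 = complete control. Preemergence: directed soil spray over planted seeds. Postemergence: plants 2–10 cm, 1–2 leaf stage. Loam/sand blend. Compound in non-phytotoxic solvent with surfactant.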

[2] = test system: giant foxtail (Setaria faberii); assay: Test A preemergence; conditions: Setaria faberi, pre-emergence, 240 h; for pest or weed control at 125 g/ha: 125 g ai/ha, preemergence, 0 to 100 scale where 0 is no effect and 100 is complete control, read-out: Foxtail, Giant plant response rating; for pest or weed control at 500 g/ha: 500 g ai/ha, Preemergence, visual injury vs untreated controls after approximately 10 d, read-out: Foxtail, Giant plant response rating (0 to 100 scale where 0 is no effect and 100 is complete control)
How it was run: as §1

[3] = test system: barnyardgrass (Echinochloa crus-galli); assay: Test A preemergence; conditions: Echinochloa crus-galli, pre-emergence, 240 h; for pest or weed control at 125 g/ha: 125 g ai/ha, preemergence, 0 to 100 scale where 0 is no effect and 100 is complete control, read-out: Barnyardgrass plant response rating; for pest or weed control at 500 g/ha: 500 g ai/ha, Preemergence, visual injury vs untreated controls after approximately 10 d, read-out: Barnyardgrass plant response rating (0 to 100 scale where 0 is no effect and 100 is complete control)
How it was run: as §1

Kochia (Kochia scoparia) [4] = assay: Test A preemergence; conditions: Bassia scoparia, pre-emergence, 240 h; for pest or weed control at 125 g/ha: 125 g ai/ha, preemergence, 0 to 100 scale where 0 is no effect and 100 is complete control, read-out: Kochia plant response rating; for pest or weed control at 500 g/ha: 500 g ai/ha, Preemergence, visual injury vs untreated controls after approximately 10 d, read-out: Kochia plant response rating (0 to 100 scale where 0 is no effect and 100 is complete control)
How it was run: as §1

[5] = test system: pigweed (Amaranthus retroflexus); assay: Test A preemergence; conditions: Amaranthus retroflexus, pre-emergence, 240 h; for pest or weed control at 125 g/ha: 125 g ai/ha, preemergence, 0 to 100 scale where 0 is no effect and 100 is complete control, read-out: Pigweed plant response rating; for pest or weed control at 500 g/ha: 500 g ai/ha, Preemergence, visual injury vs untreated controls after approximately 10 d, read-out: Pigweed plant response rating (0 to 100 scale where 0 is no effect and 100 is complete control)
[6] = test system: ryegrass, Italian (Italian ryegrass, Lolium multiflorum); assay: Test A preemergence; conditions: Lolium multiflorum, pre-emergence, 240 h; for pest or weed control at 125 g/ha: 125 g ai/ha, preemergence, 0 to 100 scale where 0 is no effect and 100 is complete control, read-out: Ryegrass, Italian plant response rating; for pest or weed control at 500 g/ha: 500 g ai/ha, Preemergence, visual injury vs untreated controls after approximately 10 d, read-out: Ryegrass, Italian plant response rating (0 to 100 scale where 0 is no effect and 100 is complete control)
How it was run: as §1

[7] = test system: giant foxtail (Setaria faberii); assay: Test A postemergence; conditions: Setaria faberi, post-emergence, 240 h, 125 g ai/ha, postemergence, visual injury rating after approximately 10 d; read-out: Foxtail, Giant plant response rating (0 to 100 scale, 0 no effect, 100 complete control)
How it was run: as §1

[8] = test system: barnyardgrass (Echinochloa crus-galli); assay: Test A postemergence; conditions: Echinochloa crus-galli, post-emergence, 240 h, 125 g ai/ha, postemergence, visual injury rating after approximately 10 d; read-out: Barnyardgrass plant response rating (0 to 100 scale, 0 no effect, 100 complete control)
How it was run: as §1

[9] = test system: wheat (Triticum aestivum); assay: Test A postemergence; conditions: Triticum aestivum, post-emergence, 240 h, 125 g ai/ha, postemergence, visual injury rating after approximately 10 d; read-out: Wheat plant response rating (0 to 100 scale, 0 no effect, 100 complete control)
How it was run: as §1

Kochia (Kochia scoparia) [10] = assay: Test A postemergence; conditions: Bassia scoparia, post-emergence, 240 h, 125 g ai/ha, postemergence, visual injury rating after approximately 10 d; read-out: Kochia plant response rating (0 to 100 scale, 0 no effect, 100 complete control)
How it was run: as §1

[11] = test system: pigweed (Amaranthus retroflexus); assay: Test A postemergence; conditions: Amaranthus retroflexus, post-emergence, 240 h, 125 g ai/ha, postemergence, visual injury rating after approximately 10 d; read-out: Pigweed plant response rating (0 to 100 scale, 0 no effect, 100 complete control)
How it was run: as §1

[12] = test system: ryegrass, Italian (Italian ryegrass, Lolium multiflorum); assay: Test A postemergence; conditions: Lolium multiflorum, post-emergence, 240 h, 125 g ai/ha, postemergence, visual injury rating after approximately 10 d; read-out: Ryegrass, Italian plant response rating (0 to 100 scale, 0 no effect, 100 complete control)
How it was run: as §1

[13] = test system: blackgrass (Alopecurus myosuroides); assay: Test A postemergence; conditions: Alopecurus myosuroides, post-emergence, 240 h, 125 g ai/ha, postemergence, visual injury rating after approximately 10 d; read-out: Blackgrass plant response rating (0 to 100 scale, 0 no effect, 100 complete control)
How it was run: as §1

corn (Zea mays) = assay: Test A postemergence; conditions: Zea mays, post-emergence, 240 h, 125 g ai/ha, postemergence, visual injury rating after approximately 10 d; read-out: Corn plant response rating (0 to 100 scale, 0 no effect, 100 complete control)
How it was run: as §1

[14] = test system: Galium (catchweed bedstraw, Galium aparine); assay: Test A postemergence; conditions: Galium, post-emergence, 240 h, 125 g ai/ha, postemergence, visual injury rating after approximately 10 d; read-out: Galium plant response rating (0 to 100 scale, 0 no effect, 100 complete control)
How it was run: as §1

Row | SMILES | pest or weed control at 125 g/ha [1] [%] | pest or weed control at 500 g/ha [1] [%] | pest or weed control at 125 g/ha [2] [%] | pest or weed control at 500 g/ha [2] [%] | pest or weed control at 125 g/ha [3] [%] | pest or weed control at 500 g/ha [3] [%] | pest or weed control at 125 g/ha (Kochia (Kochia scoparia) [4]) [%] | pest or weed control at 500 g/ha (Kochia (Kochia scoparia) [4]) [%] | pest or weed control at 125 g/ha [5] [%] | pest or weed control at 500 g/ha [5] [%] | pest or weed control at 125 g/ha [6] [%] | pest or weed control at 500 g/ha [6] [%] | pest or weed control at 125 g/ha [7] [%] | pest or weed control at 125 g/ha [8] [%] | plant injury at 125 g/ha [9] [%] | pest or weed control at 125 g/ha (Kochia (Kochia scoparia) [10]) [%] | pest or weed control at 125 g/ha [11] [%] | pest or weed control at 125 g/ha [12] [%] | pest or weed control at 125 g/ha [13] [%] | plant injury at 125 g/ha (corn (Zea mays)) [%] | further results
1 | CN1C[C@H](c2cccc(C3CC3)c2)[C@@H](C(=O)Nc2ccccc2S(C)(=O)=O)C1=O [Compound 817] | 20 | 50 | 90 | 90 | 90 | 90 | 50 | 70 | 0 | 80 | 20 | 40 | 90 | 90 | 50 | 0 | 0 | 30 | 40 | 50 | pest or weed control at 125 g/ha [14]: 40%
2 | CN1C[C@H](c2cccc(C3CC3)c2)[C@@H](C(=O)Nc2ccc(F)cc2F)C1=O [Compound 818] | 0 | 0 | 90 | 100 | 90 | 100 | 70 | 80 | 20 | 60 | 60 | 90 | 90 | 90 | 0 | 40 | 20 | 40 | 30 | 40 | pest or weed control at 125 g/ha [14]: 50%
3 | CC(C)c1cccc([C@H]2CN(C)C(=O)[C@@H]2C(=O)Nc2ccccc2F)c1 [Compound 819] | 0 | 20 | 100 | 100 | 90 | 100 | 70 | 100 | 30 | 30 | 80 | 100 | 90 | 100 | 30 | 30 | 30 | 70 | 60 | 40 | pest or weed control at 125 g/ha [14]: 50%
4 | CN1C[C@H](c2cccc(F)c2)[C@@H](C(=O)Nc2ccccc2C(F)(F)F)C1=O [Compound 823] | 0 | 40 | 100 | 100 | 90 | 100 | 0 | 70 | 0 | 50 | 30 | 60 | 90 | 90 | 0 | 20 | 20 | 0 | 20 | 0 | pest or weed control at 125 g/ha [14]: 30%
5 | N#Cc1cccc(NC(=O)[C@H]2C(=O)NC[C@@H]2c2cccc(C(F)(F)F)c2)c1F [Compound 829] | 30 | 70 | 90 | 90 | 90 | 90 | 60 | 90 | 0 | 60 | 20 | 40 | 90 | 80 | 30 | 0 | 0 | 20 | 40 | 30 | pest or weed control at 125 g/ha [14]: 30%
6 | COc1ccccc1NC(=O)[C@H]1C(=O)N(C)C[C@@H]1c1ccc(C(F)(F)F)cc1 [Compound 843] | 0 | 30 | 90 | 90 | 60 | 80 | 60 | 70 | 0 | 40 | 0 | 50 | 70 | 40 | 0 | 40 | 20 | 0 | 0 | 0 | pest or weed control at 125 g/ha [14]: 30%
